Laboratory results published in patent US7544805B2 (Chemagis Ltd., priority 2004, dated 2009).

Tests used:
[1] = Retention of amorphous character after pressing (powder X-ray diffraction); format: physicochemical; details: pressed at 10,000 Kg/cm^3 for 1 minute; X-ray diffractogram
Protocol: X-ray diffraction data were acquired using a PHILIPS X-ray diffractometer model PW1050-70. System description: Kα1=1.54178 Å, voltage 40 kV, current 28 mA, diversion slit=1°, receiving slit=0.2 mm, scattering slit=1° with a Graphite monochromator. Experiment parameters: pattern measured between 2θ=4° and 2θ=30° with 0.05° increments; count time was 0.5 second per increment.
The X-ray analysis of the residue gave a featureless diffractogram with a broad peak centered at 2θ about 22°, showing the residue was amorphous. The residue was pressed at 10,000 Kg/cm^3 for 1 minute.
The residue was then pressed at 10,000 Kg/cm3 for 1 minute.

[2] = Bulk density of the residue; format: physicochemical; details: residue after drying
From the text: The solution was then freeze dried (lyophilized), producing a residue with a bulk density of 0.061 gram/cm^3.
The solution was then spray-dried, producing a residue with a bulk density of 0.269 gram/cm^3.

Row | amorphous character after pressing [1] | bulk density [2] | Structure (SMILES)
1 | remained amorphous | 0.269 gram/cm^3 | CC(C)(O)c1ccccc1CC[C@@H](SCC1(CC(=O)[O-])CC1)c1cccc(/C=C/c2ccc3ccc(Cl)cc3n2)c1.[Na+] [Example 1, Amorphous Montelukast Sodium]
2 | – | 0.061 gram/cm^3 | CC(C)(O)c1ccccc1CC[C@@H](SCC1(CC(=O)[O-])CC1)c1cccc(/C=C/c2ccc3ccc(Cl)cc3n2)c1.[Na+] [Reference Example 1, Amorphous Montelukast Sodium, reference compound]
